Results reported in patent publication US20030036556A1, “Zonisamide use in headache” (priority 2001, published 2003).
Read-outs that look alike come from different tables or passages of the source.

Legend:
[1] = tested on: refractory migraines and mixed headache disorders; experiment: Open-label adjunctive zonisamide treatment of refractory headache patients (Example 1); assay type: in vivo, human
Protocol: Thirty-three (33) patients from an active headache clinic population were selected for open-label treatment with zonisamide. All patients had refractory migraines and mixed headache disorders, as defined by International Headache Society criteria. All had failed or responded poorly to trials with other anticonvulsants as prophylactic therapy. Most patients (n=27) had failed at least 2 such agents, and 17 had failed 3 agents. […] (Table 1). Zonisamide was initiated as adjunctive therapy: 100 mg of the medication was given in the evening or at bedtime every fourth day for 4 to 5 doses. Consequently, dosing was increased to every third day, every other day, and finally to a daily dose. Dose adjustments of zonisamide were made in increments of 100 mg, every 2 to 3 weeks, with a daily maximum dose of 500 mg, in some cases. Headache severity was rated on a 0 to 10 numeric rating scale (NRS).

[2] = tested on: CDH (chronic daily headache); experiment: Zonisamide for prophylaxis of chronic daily headache (Example 2); assay type: in vivo, human; settings: for Mean number of headache days per month: baseline 22
Protocol: Sixteen patients who received zonisamide for prophylaxis of CDH (i.e., >15 headache days/month) for at least 3 months were included in this study. […] Zonisamide therapy was initiated at 100 mg/day, and 6 patients were titrated to a zonisamide dosage of 200 mg/day after 2 weeks. Patient headache diaries were used to record information, regarding headache frequency, duration, severity, and disability ratings. Headache severity and disability were rated using a 4-point scale (0=none; 1=mild; 2=moderate; 3=severe). Headache diaries and clinic records were used to determine mean headache duration, frequency, severity, disability for each patient 1 month prior to initiation of zonisamide therapy (baseline) and again 3 months after stable zonisamide dosage was established.

[3] = tested on: chronic pain disorders (neuropathic pain), refractory migraine headaches; experiment: Zonisamide treatment of chronic pain and refractory headache patients (Example 3); assay type: in vivo, human
Text: Twenty-five patients with various chronic pain disorders were selected for treatment with zonisamide. All had neuropathic pain of one kind or another. Fifteen had failed back/neck surgeries with ongoing radicular pain, 4 had complex regional pain syndrome (type 1), 4 had diabetic neuropathy, and 2 had painful sensory neuropathy. All had failed, or responded minimally at best, to trials of numerous other anticonvulsants (neuronal stabilizing agents) for prior treatment of pain symptoms. Eighteen were on such therapy at the time of starting zonisamide therapy. Twenty-two patients with refractory migraine headaches of mixed headache disorders were similarly selected for zonisamide therapy. Most (n=17) had failed 3 or more other neuronal stabilizing agents as prophylaxis therapy for their headaches. […] Zonisamide was begun at 100 mg every third day for 3 to 5 doses, with an increase to every-other-day dosing and then to a daily dose. Dosage changes were made every 2 weeks at a minimum. Headache and pain spores were rated on a 0 to 10 numeric rating scale by each patient.

[4] = tested on: chronic pain disorders, all with neuropathic pain; experiment: Zonisamide treatment of chronic pain patients (Example 4); assay type: in vivo, human
Protocol: This study included 30 patients with various chronic pain disorders, all with neuropathic pain (Table 1). All patients had previously failed or responded minimally to numerous other anticonvulsants (neuronal stabilizing agents) for treatment of painful symptoms. Twenty-three patients were on such therapy at the time zonisamide therapy was initiated. Zonisamide therapy was initiated at 100 mg every fourth day for 3 to 6 doses, with an increase to every third day, then to every other day, and finally to a daily dose. Adjustments in the dose of zonisamide were made no more than every 2 weeks. Headache and pain scores were rated on a 0 to 10 numeric rating scale (NRS) by each patient.

[5] = tested on: generalized seizures in the kindled rat model; settings: cited from earlier work
cortical focal seizures = settings: electrical stimulation of the visual cortex in cats; cited from earlier work
[6] = tested on: interictal spikes and secondarily generalized seizures; settings: cortical application of tungstic acid gel in rats; cited from earlier work
[7] = tested on: interictal spikes and secondarily generalized seizures; settings: cortical freezing in cats; cited from earlier work
sodium channels = settings: in vitro, cited from earlier work
T-type Ca2+ currents = settings: in vitro, cited from earlier work
[8] = tested on: GABA/benzodiazepine receptor ionophore complex; settings: in vitro, cited from earlier work
[9] = tested on: cultured mouse spinal cord neurons; settings: zonisamide 10-30 μg/mL; cited from earlier work
rat hippocampal slices = settings: zonisamide 10-30 μg/mL; cited from earlier work
[10] = tested on: dopaminergic and serotonergic neurotransmission; settings: in vivo microdialysis; cited from earlier work

With NS(=O)(=O)Cc1noc2ccccc12 [zonisamide, 1,2-benzisoxazole-3-methanesulfonamide] the “number of patients (n) with discontinuation due to side effects” value ([1]; 33 patients) was 4, the “number of patients (n) with no response” value ([1]; 33 patients) was 3 and the “number of patients (n) with 25% to 50% decrease in headache frequency” value ([1]; after at least 2 months of zonisamide therapy, 33 patients) was 8. The “number of patients (n) with ≧65% decrease in headache frequency” value ([1]; after at least 2 months of zonisamide therapy, 33 patients, 10 still in titration) was 6, the “patients who did not respond” value ([1]; of 33 patients) was 9 % of total and the “patients who dropped the medication due to side effects” value ([1]; of 33 patients) was 12 % of total. The Mean disability rating ([2]; 4-point scale (0=none to 3=severe), after 3 months, baseline 1.48) was 1.12, the “Mean headache severity rating” value ([2]; 4-point scale (0=none to 3=severe), after 3 months, baseline 1.84) was 1.41 and the Mean headache duration ([2]; after 3 months at stable dosage, mean dosage 137.5 mg/d, baseline 8.46) was 6.41 h. For the same compound, the “Mean number of headache days per month” value ([2]; after 3 months at stable dosage, mean dosage 137.5 mg/d, n=16) was 5 days/month, the “Mean number of headache days per month” value ([2]; after 3 months at stable dosage, mean dosage 137.5 mg/d, n=16, listed as Zonismide) was 14.5 days/month and the “decrease of mean disability rating” value ([2]; after 3 months vs baseline) was 24%. For the same compound, the “decrease of mean headache rating” value ([2]; after 3 months vs baseline) was 23%, the “reduction of mean headache duration” value ([2]; after 3 months vs baseline) was 24% and the “reduction of total headache time” value ([2]; after 3 months vs baseline) was 50%. For the same compound, the “reduction of mean number of headache days/month” value ([2]; after 3 months vs baseline, mean dosage 137.5 mg/d) was 34%, the mean weight loss ([2]; in the 9 patients with weight loss) was 11 lb and the “adverse events: number of patients with mild diarrhea” value ([2]; n=16) was 2 patients. The “adverse events: number of patients with weight loss” value ([2]; n=16) was 9 patients, the tolerability ([2]; n=16, 3 months) was “well tolerated” and the Total headache time ([2]; on zonisamide after 3 months, baseline 186) was 93 hours/month. For the same compound, the “number of patients with pain reductions averaging 60% or better” value ([3]; 0 to 10 numeric rating scale) was 6 patients, the “number of patients with reductions in pain of 30% to 50%” value ([3]; 0 to 10 numeric rating scale) was “Six” and the “number of patients with slight reductions (less than 25%)” value ([3]; 0 to 10 numeric rating scale) was “Four”. The “number of patients with no pain relief and/or side effects” value ([3]; human, in vivo) was 7 patients, the “number of patients with no pain relief and/or reported side effects” value ([4]; 30 patients) was 5 patients and the “number of patients with slight (less than 25%) pain reductions” value ([4]; 30 patients) was “Five”. For the same compound, the “number of patients with pain reductions of 60% or greater” value ([4]; after at least 2 months of zonisamide therapy, 30 patients) was 10 patients, the “number of patients with 30% to 50% reductions in pain” value ([4]; after at least 2 months, 30 patients) was 7 patients and the “share of patients with 30% to 50% reductions in pain” value ([4]; of 30 patients) was 23%. For the same compound, the “share of patients with no pain relief and/or reported side effects” value ([4]; of 30 patients) was 17%, the “share of patients with pain reductions of 60% or greater” value ([4]; of 30 patients) was 30% and the “share of patients with slight (less than 25%) pain reductions” value ([4]; of 30 patients) was 17%. The “effect on threshold for generalized seizures” value [5] was “anticonvulsant activity”, the “duration of cortical focal seizures” value (cortical focal seizures) was “reduced the duration” and the “interictal spikes and secondarily generalized seizures” value [6] was “suppressed”. For the same compound, the “interictal spikes and secondarily generalized seizures” value [7] was “suppressed”, the “effect on sodium channels” value (sodium channels) was “blocks” and the “effect on sodium channels” value (sodium channels; listed as Zonisamide) was “inhibits”. For the same compound, the “effect on voltage-dependent, transient inward currents (T-type Ca2+ currents)” value (T-type Ca2+ currents) was “reduces”, the “effect on voltage-dependent, transient inward currents (T-type Ca2+ currents)” value (T-type Ca2+ currents; listed as Zonisamide) was “blocks” and the “binding to the GABA/benzodiazepine receptor ionophore complex” value ([8]; allosteric fashion) was “binds”. The “changes in chloride flux” value [8] was “does not produce changes”, the “post-synaptic GABA or glutamate responses” value [9] was “without affecting” and the synaptically-driven electrical activity [9] was “suppresses”. For the same compound, the “neuronal or glial uptake of [3H]-GABA” value (rat hippocampal slices) was “without affecting” and the “dopaminergic and serotonergic neurotransmission” value [10] was “facilitates”.
